According to patent US20240408158A1 (LINYI UNIVERSITY, priority 2023, published 2024):

Experiments:
mice with hyperuricemia = experiment: Model of hyperuricemia induced by high purine (yeast extract plus oteracil potassium); type: in vivo; conditions: allopurinol treatment group 20 mg/kg gavage, 7 days, 5 mice per group
Source text: 1. Experimental animal: Balb/c male mice, 6-8 weeks old, with weigh of 16-18 g were purchased from Sperford (Beijing) Biotechnology Co., Ltd. At the Experimental Animal Center of Qingdao University, all mice were placed in pathogen free facilities, maintained at appropriate temperature and relative humidity, followed by a 12-hour light and dark cycle, they freely ate and drank, and clean bedding was replaced daily.
3. […] From Day 5 to Day 7, except for the blank control group, the other four groups were given 0.1 ml (6 mg/animal) of oteracil potassium by intraperitoneal injection.

[1] = test system: mice with hyperuricemia induced by fructose and yeast diet; experiment: Model of hyperuricemia induced by fructose and yeast diet, serum uric acid; type: in vivo
Source text: 1. Experimental animal: […] At the Experimental Animal Center of Qingdao University, all mice were placed in pathogen free facilities, maintained at appropriate temperature and relative humidity, followed by a 12-hour light and dark cycle, they freely ate and drank and clean bedding was replaced daily. 3. Method of modeling: 36 Balb/c male mice were divided into 6 groups, with 6 mice in each group. They were: […] Dissolving allopurinol and Antarctic red pigment in double distilled water and mixing well. […] Weights of each group of mice from day 0 onwards were recorded. 5. Uric acid testing: At Sam on days 14, 21, 28, and 35, mice were fasted for 12 hours and blood samples from the posterior orbital venous plexus of the mice were collected for uric acid testing. After the blood collection was completed, the blood was left at room temperature for one hour and centrifuged at a speed of 3000 rpm for 5 minutes to obtain a light-yellow upper serum.

[2] = test system: mouse bone marrow red cells; conditions: positive control 40 mg/kg BW; P<0.01
Description: 3.3 Mammalian red blood cell micronucleus test: 50 healthy, mature mice with weight of 25-30 g were selected, with half male and half female. The mice were randomly divided into 5 groups, 10 mice in each group, and half male and half female in each group. The experiment was conducted with three dose groups of 1.25, 2.5, and 5.0 g/kgBW Samples of 2.5, 5.0, and 10.0 g were weighed and prepared into 40 mL sample solutions using distilled water as the solvent. […] Mice were given test substance by oral gavage at a volume of 20 mL/kgBW, gavaged twice with an interval of 24 hours. Six hours after the second gavage, the animals were euthanized due to cervical dislocation. Sternal bone marrow was taken and made into bone marrow slices, fixed with methanol, and stained with Giemsa.
2000 polychromatic erythrocytes in each animal were observed and a frequency of micronucleus polychromatic erythrocytes (namely, micronucleus frequency) was counted, expressed in thousandths.

[3] = after 14 days, Allopurinol group 20 mg/kg

Row | SMILES | deaths (mice with hyperuricemia) | uric acid level ([1]; 21st day, Allopurinol group 20 mg/kg) | uric acid level ([1]; 28th day, Allopurinol group 20 mg/kg) | uric acid level ([1]; 35th day, Allopurinol group 20 mg/kg) | increase of uric acid level compared with the control group [1, 3] | uric acid level lower than in the High uric acid model group [1, 3] | uric acid level ([1]; after 14 days, Allopurinol group 20 mg/kg gavage once a day) | micronucleus frequency compared with negative control group [2]
1 | Oc1ncnc2[nH]ncc12 [allopurinol] | no deaths | 247.2 ± 48.98 µmol/L | 264.9 ± 54.87 µmol/L | 215.8 ± 37.132 µmol/L | 24.67% | 30.39% | 191.5 ± 21.95 µmol/L | –
2 | O=P1(N(CCCl)CCCl)NCCCO1 (centres unmarked) [cyclophosphamide] | – | – | – | – | – | – | – | significantly higher
